Values quoted from earlier work as cited in patent publication US20240277627A1, “NOVEL FLUOROCHEMICAL CARDIAC RESUSCITATION” (NUVOX PHARMA LLC, priority 2023, published 2024).

- metabolism / route of clearance (clears from the body via exhalation): not metabolized
- terminal half-life (humans): about 90 minutes
Structure (SMILES): FC(F)(F)C(F)(F)C(F)(F)C(F)(F)C(F)(F)F [DDFP, n-dodecafluoropentane]
